Square brackets hold non-standard residues; d marks the D form. Peptide text beside a SMILES is read from it. Orn(N5-OH,N5-Ac) = CC(=O)N(O)CCC[C@H](N)C(=O)O
Tested on: Aspergillus fumigatus FP1305
Assay: Antifungal activity, broth microdilution method
Type: cell-based
Experimental: Antifungal activities for test fungi shown in Table 15 was determined by a broth microdilution method (Hikaru Kume and Toshikazu Yamazaki, Clinical Microbiology, Vol. 21, No. 5, pp. 573-580, 1994).

`CC(=O)N([O-])CCC[C@@H]1NC(=O)CNC(=O)CNC(=O)CNC(=O)[C@H](CCCN([O-])C(C)=O)NC(=O)[C@H](CCCN([O-])C(C)=O)NC1=O.[Fe+3]` [ferrichrome, Ferrichrome] (cyclo(GGG[Orn(N5-OH,N5-Ac)][Orn(N5-OH,N5-Ac)][Orn(N5-OH,N5-Ac)])) was tested, and the “MEC (minimum effective concentration)” value was no less than 50 µg/mL.
